Test results: PubChem BioAssay AID624254 (Broad Institute, 2012)
The source made the active and inactive calls. No rule for the calls is given here.

The compounds below were run against V. cholerae BH1651 luxOD47E, luciferase light induction, 6 h (assay: Quorum luxo inducers, light production, v cholerae bh1651 luxod47e, confirmatory dose response (AID 624254)).
`CCOc1ccc(CNC(=O)c2ccco2)cc1` was tested, and the AC50 was 35600 nM. For `Cc1cccc(NC(=O)c2c(O)c3ccccc3n(C)c2=O)c1`, the AC50 was > 50000 nM (inactive). For `COc1ccc(OC)c(S(=O)(=O)N2CCC(C(=O)N3CCc4ccccc4C3)CC2)c1`, the AC50 was 191 nM. For `O=C(CNC(=O)c1cccc(S(=O)(=O)N2CCc3ccccc32)c1)Nc1ccc(F)c(F)c1F`, the AC50 was 516 nM. Compound `CSc1nc(C)cc(OCC(=O)N2CCOCC2)n1` has an AC50 of 113 nM. `Cc1nc2ncnn2c(C)c1Cc1c(Cl)cccc1Cl` showed an AC50 of 1220 nM. Work on `COc1ccc(Cl)cc1S(=O)(=O)NC(C)C(=O)NCCCn1ccnc1` (stereo unspecified) yielded an AC50 of 180 nM. With `CCCCn1nnnc1NCc1ccc(N2CCCC2)cc1` the AC50 was 38700 nM. For `CCCOc1ccc(-c2nc(OC)c3ccccc3n2)cc1`, the AC50 was 7010 nM. `COc1ccc(OCCOC(=O)c2cccs2)cc1` showed an AC50 of 40300 nM. `O=C(NCc1ccccn1)C(C(=O)c1ccc(F)cc1)n1ccccc1=O` (stereo unspecified) showed an AC50 of 49.3 nM. Work on `COc1ccc(N2CC(C(=O)Nc3cc(C(F)(F)F)ccc3N3CCCC3)CC2=O)c(OC)c1` (stereo unspecified) yielded an AC50 of 1220 nM. For `C[C@H](CO)N1C[C@H](C)[C@@H](CN(C)S(=O)(=O)c2ccccc2)Oc2c(NC(=O)Nc3ccc4c(c3)OCO4)cccc2C1=O`, the AC50 was 1800 nM. With `O=[N+]([O-])c1ccc(N(CCO)CCO)c2c1no[n+]2[O-]` the AC50 was 1200 nM. With `COc1ccc(OCCOC(=O)CCS(=O)(=O)c2ccc(C)cc2)cc1` the AC50 was 208 nM. For `CC(C)Cn1c(CN2CCN(C)C(CCO)C2)nc2ccccc21` (stereo unspecified), the AC50 was > 50000 nM (inactive). `Cc1noc(C)c1NC(=O)Nc1cccc2c1O[C@@H](CN(C)S(=O)(=O)c1cccs1)[C@H](C)CN([C@H](C)CO)C2=O` gave an AC50 of 11200 nM. Compound `CCc1cc(C(=O)c2ccccc2OC)c(N)s1` has an AC50 of 802 nM. For `C=Cn1c(C(=O)O)ccc1-c1ccc(OC)cc1`, the AC50 was under 380 nM. With `CCCS(=O)(=O)N1CCCC(C(=O)N2CCN(c3ccccc3)CC2)C1` (stereo unspecified) the AC50 was 41.3 nM. `Cc1ccc2onc(CC(=O)O)c2c1` gave an AC50 of 8360 nM. `Cc1ccc(C)c(-n2c(Cc3cccs3)n[nH]c2=S)c1` was tested, and the AC50 was under 23.5 nM. In the case of `Cc1noc(C)c1S(=O)(=O)N1CCCC(C(=O)NCCC2=CCCCC2)C1` (stereo unspecified), the AC50 is reported as 2640 nM. `CC(=O)Nc1ccc(N2CCCC2)cc1` was tested, and the AC50 was > 50000 nM (inactive). For `CCOC(=O)C1=C(C)N=C2SCCC(=O)N2C1c1cc(Br)ccc1OC` (stereo unspecified), the AC50 was 35.4 nM. In the case of `Cc1ccc(Cn2c(SCC(C)C)nc3c2c(=O)[nH]c(=O)n3C)cc1`, the AC50 is reported as 166 nM. `COc1ccc(NC(=O)CCS(=O)(=O)c2ccc3c(c2)CCCN3C(C)=O)cc1Cl` showed an AC50 of 113 nM. With `CC(C)C(NC(=O)c1ccc(S(=O)(=O)N2CCOCC2)cc1)c1nc2ccccc2[nH]1` (stereo unspecified) the AC50 was 15300 nM. In the case of `O=C(COC(=O)/C=C/c1ccccc1)NC1CCCC1`, the AC50 is reported as > 50000 nM (inactive). `Cc1ccc(N2C(=O)C(CN(C)C)C2c2ccccc2)cc1` (stereo unspecified) showed an AC50 of 417 nM. In the case of `COc1ccc(S(=O)(=O)N2CCN(c3cnccn3)CC2)cc1`, the AC50 is reported as 2580 nM. With `Cc1noc(C)c1C(=O)OCC(=O)c1c[nH]c2ccccc12` the AC50 was > 50000 nM (inactive). `COc1ccc(NC(=O)Nc2cccc3c2O[C@H](CN(C)S(=O)(=O)c2ccccc2)[C@@H](C)CN([C@H](C)CO)C3=O)cc1` gave an AC50 of 13200 nM. Compound `COc1cc(NC(=O)Nc2cccc(Cl)c2)c(OC)cc1NC(=O)CN1CCCCC1` has an AC50 of 522 nM. `C[C@H](CO)N1C[C@H](C)[C@@H](CN(C)S(=O)(=O)c2ccccc2)Oc2c(NC(=O)Nc3ccccc3)cccc2C1=O` gave an AC50 of 6480 nM. In the case of `COc1ccc(C)c2sc(N3CCCC3)nc12`, the AC50 is reported as 1520 nM. With `C=C(C)COc1ccc(-c2ncncc2Oc2ccc(OC)cc2)c(O)c1` the AC50 was 632 nM. With `O=C(CN1CCN(c2ccc(F)cc2)CC1)Nc1cc(C(F)(F)F)ccc1Cl` the AC50 was > 50000 nM (inactive). With `COc1ccc(N2CCN(C(=O)COc3ccc4ccccc4c3)CC2)cc1` the AC50 was 35100 nM. Work on `CCn1nc(NC(=O)c2ccco2)c2cc3ccccc3nc21` yielded an AC50 of 2360 nM. Work on `CN(CC(=O)Nc1c(Cl)cccc1Cl)C(=O)c1n[nH]c2ccccc12` yielded an AC50 of 38800 nM. `CC(=O)c1cccc(NC(=O)CSc2nc(=O)n(CCCN3CCOCC3)c3c2CCC3)c1` showed an AC50 of 180 nM. With `CCCS(=O)(=O)N1CCC(C(=O)N2CCN(C(=O)OCC)CC2)CC1` the AC50 was > 50000 nM (inactive). With `COc1ccc(CNC(=O)c2cc(-n3cnnc3)ccc2Cl)cc1` the AC50 was 4230 nM. In the case of `CC(=O)Oc1ccc(-c2ccc(C(=O)O)cc2)cc1`, the AC50 is reported as > 50000 nM (inactive). For `CCOC(=O)c1cnc2nc(C(F)(F)F)[nH]n2c1=O`, the AC50 was 15700 nM. Work on `Cn1c(C(=O)NC2CCCCC2)cc2c(=O)n(C)c3ccccc3c21` yielded an AC50 of 27.3 nM. With `Cc1noc(C)c1S(=O)(=O)Nc1ccc2c(c1)C(=O)N([C@H](C)CO)C[C@H](C)[C@@H](CN(C)Cc1ccc(C(=O)O)cc1)O2` the AC50 was 18800 nM. In the case of `CCOC(=O)c1cnc(-n2nc(C)cc2C)nc1N(C)C`, the AC50 is reported as 67.6 nM. `COc1ccc(CNc2nnnn2C)cc1` showed an AC50 of 3510 nM. `CC(=O)N1CCN(C(=O)COc2ccc(Br)cc2)CC1` was tested, and the AC50 was > 50000 nM (inactive). `C=CCn1c(NCc2ccccc2)nc2ccccc21` was tested, and the AC50 was 11700 nM. For `Cc1ccc(C)c(S(=O)(=O)N2CCN(C(=O)c3n[nH]c(=O)c4ccccc34)CC2)c1`, the AC50 was 2960 nM. Compound `O=C(CSc1nnc2ccccn12)c1ccc2c(c1)OCCO2` has an AC50 of 17000 nM. For `O=[N+]([O-])c1ccc(N2CCOCC2)c2c1no[n+]2[O-]`, the AC50 was 1740 nM. Work on `CCC(=O)N(CC)c1nc(-c2cc(OC)ccc2OC)cs1` yielded an AC50 of 162 nM. In the case of `CC(NC(=O)CN1CCN(c2ccccc2F)CC1)c1ccccc1` (stereo unspecified), the AC50 is reported as > 50000 nM (inactive). `COc1ccc(-c2noc(CCC(=O)N3CCN(c4cccc(C(F)(F)F)c4)CC3)n2)cc1` gave an AC50 of 685 nM. For `Cc1cc(=O)[nH]c(CN2CCC(c3ccccc3)CC2)n1`, the AC50 was 296 nM. `O=C(Nc1nnc(C(F)(F)F)s1)C1COc2ccccc2O1` (stereo unspecified) showed an AC50 of 13700 nM. `CC(C)c1ccc(CNc2nnnn2C)cc1` showed an AC50 of 101 nM. For `CC(C)COC(=O)CNc1n[nH]c(=S)[nH]c1=O`, the AC50 was under 23.5 nM. For `O=C(NCc1ccccn1)c1ccc(CS(=O)(=O)Cc2ccc(Cl)cc2)o1`, the AC50 was 20500 nM. With `CCC(CC)c1nnc(NC(=O)COc2ccc3c(C)cc(=O)oc3c2)s1` the AC50 was 99.8 nM. Work on `CCOc1ccc(CCNC(=O)C2CCN(c3ccc(N4CCOCC4)nn3)CC2)cc1OCC` yielded an AC50 of 44.5 nM. `CCn1nnnc1NCc1ccc(SC)cc1` gave an AC50 of 188 nM. `CCOCCCN1CC(C(=O)NCCc2ccc(C)cc2)CC1=O` (stereo unspecified) gave an AC50 of 185 nM. Work on `COc1ccccc1NC(=O)c1nn(-c2ccc(Cl)cc2)ccc1=O` yielded an AC50 of 377 nM. Compound `O=C(Nc1nccs1)C(NS(=O)(=O)c1ccc(Br)s1)c1ccccc1` (stereo unspecified) has an AC50 of 15800 nM. For `Cc1ccc2nc(NCCc3ccccc3)c3nncn3c2c1`, the AC50 was 68.1 nM. `COC(=O)c1ccccc1NC(=O)Cn1cc2c(n1)CCC(C)C2` (stereo unspecified) was tested, and the AC50 was 1480 nM. `COc1cc(NC(=O)C2=C(C)OCCS2)c(Cl)cc1C(=O)NCCN(C)C` was tested, and the AC50 was 463 nM. For `CCC(NC(=O)Nc1nccs1)(C(F)(F)F)C(F)(F)F`, the AC50 was 734 nM. In the case of `CCOc1ccc(CCNC(=O)COC(=O)Cc2ccc(F)cc2)cc1OCC`, the AC50 is reported as 95.3 nM. `COc1ccc(Cl)cc1NC(=O)COC(=O)c1ccc(Br)o1` was tested, and the AC50 was 8880 nM. For `CCCCCc1c(C)nc(N2CCc3ccccc3C2)[nH]c1=O`, the AC50 was 295 nM. In the case of `C[C@H]1CN([C@@H](C)CO)C(=O)c2cccc(NC(=O)Nc3ccc4c(c3)OCO4)c2O[C@@H]1CN(C)S(=O)(=O)c1ccccc1`, the AC50 is reported as 2250 nM. In the case of `O=c1cc(CSc2ccccn2)c2ccccc2[nH]1`, the AC50 is reported as 615 nM. `CCCCCCCCOC(=O)C(NC(=O)CCC(=O)Nc1ccc(S(N)(=O)=O)cc1)C(O)c1ccccc1` (stereo unspecified) was tested, and the AC50 was > 50000 nM (inactive). `CC(C)(C)Cc1nc(-c2ccccn2)no1` was tested, and the AC50 was > 50000 nM (inactive). For `CC(C)n1nnnc1SCC(=O)c1ccc2c(c1)OCCO2`, the AC50 was 845 nM. Compound `COc1cccc(OCC(=O)NC2CCCCC2)c1` has an AC50 of 2430 nM. In the case of `CCn1cc(C(=O)NC2CCCCC2C)c(=O)c2ccc(C)nc21` (stereo unspecified), the AC50 is reported as 1080 nM. `O=C(Nc1nnc(-c2ccc3c(c2)OCCO3)o1)C1CCCCC1` was tested, and the AC50 was under 23.5 nM. `O=C(Cn1cccc1C(=O)c1ccccc1)NCCN1CCCCCC1` showed an AC50 of 25600 nM. With `O=C(NCCC(=O)N1CCCCC1)c1ccc(Br)cc1` the AC50 was 25000 nM. In the case of `O=C(c1ccc(C(=O)N2CCOCC2)nc1)N1CCOCC1`, the AC50 is reported as 183 nM. `C[C@H](CO)N1C[C@H](C)[C@@H](CN(C)S(=O)(=O)c2cccs2)Oc2c(NC(=O)Nc3ccc4c(c3)OCO4)cccc2C1=O` was tested, and the AC50 was 1180 nM. `CCOC(=O)CSc1nc(N)c(C#N)c(-c2cccs2)c1C#N` gave an AC50 of 11700 nM. In the case of `CCc1ccc(NS(=O)(=O)c2cccs2)cc1`, the AC50 is reported as 212 nM. `COC(=O)C(C)N(c1ccc(C)cc1)S(=O)(=O)c1c(C)[nH]c(=O)[nH]c1=O` (stereo unspecified) was tested, and the AC50 was > 50000 nM (inactive). In the case of `Cc1ccc(-n2nnnc2SCC(=O)NCC2CCCO2)cc1C` (stereo unspecified), the AC50 is reported as 33.6 nM. In the case of `CN(C(=O)Cn1cc(C(F)(F)F)cc(Cl)c1=O)C1CCS(=O)(=O)C1` (stereo unspecified), the AC50 is reported as 1230 nM. With `O=C(O)c1cccc(Nc2ncnc3c2cnn3-c2ccccc2)c1` the AC50 was > 50000 nM (inactive). `CCC(Oc1ccccc1)C(=O)Nc1ccc(-c2nnc(-c3ccco3)o2)cc1` (stereo unspecified) was tested, and the AC50 was > 50000 nM (inactive). `Cc1ccc2cc3c(NC(=O)c4ccco4)nn(C)c3nc2c1` was tested, and the AC50 was under 23.5 nM. In the case of `Cn1c(Cn2cnc(Cl)c2Cl)nc2ccccc21`, the AC50 is reported as 210 nM. With `O=C(NCc1ccco1)C1CCCN1S(=O)(=O)c1ccc2ccccc2c1` (stereo unspecified) the AC50 was > 50000 nM (inactive). In the case of `NS(=O)(=O)c1ccc(NC(=O)NC2CCCCC2)cc1`, the AC50 is reported as 2290 nM. In the case of `Cc1sc(N)nc1-c1ccc(Oc2ccccc2)cc1`, the AC50 is reported as 167 nM. With `O=C(c1cc2cc(Cl)ccc2oc1=O)N1CCOCC1` the AC50 was 67.8 nM. `Cc1cc2oc(=O)cc(-c3ccccc3)c2c(C)c1-c1ccc(C#N)cc1` was tested, and the AC50 was 3210 nM. `CCC(C)n1cnc2c(=O)oc3ccccc3c21` (stereo unspecified) gave an AC50 of 149 nM. For `CSc1ccc(C#N)cc1NC(=O)c1ccc(Cl)cc1Cl`, the AC50 was > 50000 nM (inactive). `CC1CCCCC1NC(=O)COC(=O)c1ccccc1NC(=O)c1ccco1` (stereo unspecified) was tested, and the AC50 was 20000 nM. Compound `O=C(NC1CCCCC1)C(=O)c1c[nH]c2ccccc12` has an AC50 of under 23.5 nM.
